From ChEMBL document CHEMBL6074647, “Design, synthesis and antitumor activity of novel 4-oxobutanamide derivatives” (Bioorg Med Chem Lett, 2024) come the findings set out here.

Each structure is given as a SMILES string.

For one experiment, the system named is MDA-MB-231. The experiment can be described thus: Antiproliferative activity against human MDA-MB-231 cells assessed as reduction in cell viability by MTT assay. The class given is functional, cell-based. (In general: Tetrazolium dyes change colour on reduction, which living cells bring about.)
Experiment [1] deals with HeLa. The experiment can be described thus: Antiproliferative activity against human HeLa cells assessed as reduction in cell viability by MTT assay. The class given is functional, cell-based.
Experiment [2] concerns A498. The experiment can be described thus: Antiproliferative activity against human A498 cells assessed as reduction in cell viability by MTT assay. The class given is functional, cell-based.
In another experiment the test system is A2780. The experiment can be described thus: Antitumor activity against human A2780 cells. The class given is functional, cell-based.
For the next experiment, the system named is PANC-1. The experiment can be described thus: Antitumor activity against human PANC-1 cells. The class given is functional, cell-based.
In the next experiment the test system is SMMC-7721. The experiment can be described thus: Antitumor activity against human […] cells. The class given is functional, cell-based.
The test system of experiment [3] is A498. The experiment can be described thus: Anti-angiogenesis activity against human A498 cells xenografted in chicken embryo chorioallantoic membrane assessed as CAM blood vessel growth at 2 uM. The class given is functional. On the technique in general: Xenograft models place foreign cells or tissue in a host animal.
The subject of experiment [4] is A498. The experiment can be described thus: Inhibition of colony formation in human A498 cells assessed as proliferative capacity at 1 uM. More on the design: scale not given: the % may be the effect or the level left. The class given is functional.
The test system of experiment [5] is A498. The experiment can be described thus: Inhibition of colony formation in human A498 cells assessed as proliferative capacity at 4 uM. The class given is functional. More on the design: scale not given: the % may be the effect or the level left.
Experiment [6] has as its system A498. The experiment can be described thus: Inhibition of cell adhesion in human A498 cells. The class given is functional, cell-based. To be noted: dose 1-4 µM.
For experiment [7], the system named is A498. The experiment can be described thus: Inhibition of cell invasion in human A498 cells assessed as decrease in cell density invading the bottom surface of the membrane by Transwell assay. The class given is functional, cell-based. To be noted: dose 1-4 µM.
The test system of experiment [8] is A498. The experiment can be described thus: Inhibition of colony formation in human A498 cells assessed as proliferative capacity at 2 uM. The class given is functional. More on the design: scale not given: the % may be the effect or the level left.
Experiment [9] relates to A498. The experiment can be described thus: Antitumor activity against human A498 cells xenografted in chicken embryo chorioallantoic membrane assessed as decrease in tumor weight at 4 uM. The class given is functional, cell-based.
The test system of experiment [10] is A498. The experiment can be described thus: Anti-angiogenesis activity against human A498 cells xenografted in chicken embryo chorioallantoic membrane assessed as CAM blood vessel growth at 4 uM. The class given is functional.
Experiment [11] deals with A498. The experiment can be described thus: Inhibition of cell adhesion in human A498 cells at 4 uM. The class given is functional, cell-based.
In experiment [12] the test system is A498. The experiment can be described thus: Inhibition of cell invasion in human A498 cells assessed as decrease in cell density invading the bottom surface of the membrane at 2 uM by Transwell assay. The class given is functional, cell-based.
Experiment [13] has as its system A498. The experiment can be described thus: Anti-angiogenesis activity against human A498 cells xenografted in chicken embryo chorioallantoic membrane assessed as CAM blood vessel growth at 1 uM. The class given is functional.
Experiment [14] relates to A498. The experiment can be described thus: Antitumor activity against human A498 cells xenografted in chicken embryo chorioallantoic membrane assessed as decrease in tumor weight. As to conditions: dose 1-4 µM; call rule not given here. The class given is functional, cell-based.
The subject of another experiment is NCI-H460. The experiment can be described thus: Antiproliferative activity against human NCI-H460 cells assessed as inhibition of cell growth. The class given is functional, cell-based.
For experiment [15], the system named is HeLa. The experiment can be described thus: Antiproliferative activity against human HeLa cells assessed as inhibition of cell growth. The class given is functional, cell-based.

On to `COc1ccc(CN(C(=O)C(=O)Nc2ccc(C)cc2)c2cc(OC)c(OC)c(OC)c2)cc1`, for which the IC50 (in general, the concentration at which inhibition is half-maximal) with MDA-MB-231 was 55.9 µM.
The same measure, in the same setting: in the case of `COc1ccc(CN(C(=O)C(=O)Nc2ccc(Cl)cc2)c2cc(OC)c(OC)c(OC)c2)cc1` it was 40.7 µM.
Consider `COc1ccc(CN(C(=O)CCC(=O)Nc2cccc(OC)c2)c2cc(OC)c(OC)c(OC)c2)cc1`, for which the IC50 in the experiment on HeLa [1] is 12 µM; in the experiment with MDA-MB-231, 21.4 µM; in the experiment on A498 [2], 8.27 µM.
The matching figures for `COc1ccc(CN(C(=O)CCC(=O)Nc2ccccc2)c2cc(OC)c(OC)c(OC)c2)cc1`: 16 µM, 16.1 µM and 2.11 µM.
`COc1ccc(CCc2cc(OC)c(OC)c(OC)c2)cc1O`: the IC50 with A2780 is 0.42 µM; in the experiment on PANC-1 it was 0.45 µM; with SMMC-7721, 0.29 µM.
For the molecule `COc1ccc(CN(C(=O)CCC(=O)Nc2ccc(O)cc2)c2cc(OC)c(OC)c(OC)c2)cc1`, the figures for the IC50 with HeLa [1], in the experiment on MDA-MB-231 and with A498 [2] were 11.8 µM, 23.5 µM and 3.23 µM, respectively.
With `COc1ccc(CN(C(=O)CCC(=O)Nc2ccc(C)cc2)c2cc(OC)c(OC)c(OC)c2)cc1`, the IC50 is greater than 100 µM with HeLa [1], 8.08 µM in the experiment with MDA-MB-231 and 5.34 µM in the experiment on A498 [2].
As to `COc1ccc(CN(C(=O)CCC(=O)Nc2ccc(OC)cc2)c2cc(OC)c(OC)c(OC)c2)cc1`, the Activity in the experiment with A498 [3] is recorded as 66.22%; with A498 [4], 66.94%; in the experiment with A498 [5] it was 11.16%; in the experiment with A498 [8] it was 26.03%; in the experiment with A498 [9], “Active; Better Activity Compared To Positive Control, Paclitaxel And Colchicine”; in the experiment on A498 [10], 42.04%. The Activity in the experiment with A498 [13] was 82.4%; in the experiment with A498 [14], “Dose-dependent-effect”. Moreover, the concentration for half-maximal inhibition (IC50) was determined as 8.24 µM in the experiment on HeLa [1], 31.5 µM in the experiment on MDA-MB-231 and 1.94 µM in the experiment on A498 [2]. The inhibition result with A498 [6] is “Dose-dependent-effect”; in the experiment with A498 [7], “Dose-dependent-effect”; in the experiment with A498 [11], “Active; Better Activity Compared To Positive Control, Paclitaxel And Colchicine”; in the experiment on A498 [12], “Active; Better Activity Compared To 4 Um Positive Control, Paclitaxel And Colchicine”.
As to `COc1ccc(CN(C(=O)CCC(=O)Nc2cccc(Cl)c2)c2cc(OC)c(OC)c(OC)c2)cc1`, the figures for the half-maximal inhibitory concentration (IC50) with HeLa [1], in the experiment on MDA-MB-231 and with A498 [2] were 20.4 µM, 48.3 µM and 10.7 µM, respectively.
Consider `COc1ccc(CN(C(=O)CCC(=O)Nc2cc(OC)c(OC)c(OC)c2)c2cc(OC)c(OC)c(OC)c2)cc1`, for which the concentration for half-maximal inhibition (IC50) with HeLa [1] is 57.5 µM; with MDA-MB-231 it was greater than 100 µM; in the experiment with A498 [2] it was greater than 100 µM.
Consider `COc1ccc(N(C)c2nc(C)nc3ccccc23)cc1NC(=O)CCC(=O)NO`, for which the IC50 in the experiment on NCI-H460 worked out at 1.05 µM; in the experiment on HeLa [15] it was 2.41 µM.
Consider `COc1ccc(CN(C(=O)CCC(=O)Nc2ccccc2Cl)c2cc(OC)c(OC)c(OC)c2)cc1`, for which the results for the IC50 in the experiment on HeLa [1], in the experiment with MDA-MB-231 and in the experiment with A498 [2] were 41.9 µM, 73 µM and 5.58 µM, respectively.
On to `COc1ccc(CN(C(=O)CCC(=O)Nc2ccc(Br)cc2)c2cc(OC)c(OC)c(OC)c2)cc1`, for which the IC50 in the experiment on HeLa [1] amounted to 20.8 µM; in the experiment on MDA-MB-231 it was 58.6 µM; in the experiment on A498 [2], 5.4 µM.
The matching figures for `COc1ccc(CN(C(=O)CCC(=O)Nc2ccc(F)cc2)c2cc(OC)c(OC)c(OC)c2)cc1`: 2.39 µM, 24 µM and 4.06 µM.
The matching figures for `COc1ccc(CN(C(=O)CCC(=O)Nc2ccc(C(F)(F)F)cc2)c2cc(OC)c(OC)c(OC)c2)cc1`: 4.65 µM, greater than 100 µM and greater than 100 µM.
For `COc1ccc(CN(C(=O)CCC(=O)Nc2ccccc2OC)c2cc(OC)c(OC)c(OC)c2)cc1` the same measures were 48.3 µM, 74.4 µM and 5.81 µM.
Regarding `COc1ccc(CN(C(=O)CCC(=O)Nc2cccc(C)c2)c2cc(OC)c(OC)c(OC)c2)cc1`, the values for the IC50 in the experiment with HeLa [1], in the experiment on MDA-MB-231 and with A498 [2] were 19.2 µM, 16.6 µM and 8.85 µM, respectively.
With `CC(=O)O[C@H]1C(=O)[C@@]2(C)[C@H]([C@H](OC(=O)c3ccccc3)[C@]3(O)C[C@H](OC(=O)[C@H](O)[C@@H](NC(=O)c4ccccc4)c4ccccc4)C(C)=C1C3(C)C)[C@]1(OC(C)=O)CO[C@@H]1C[C@@H]2O` [PACLITAXEL], the IC50 amounted to 21.3 µM in the experiment on HeLa [1] and 31.4 µM in the experiment on MDA-MB-231.
Consider `COc1ccc(CN(C(=O)CCC(=O)Nc2cccc(F)c2)c2cc(OC)c(OC)c(OC)c2)cc1`, for which the IC50 with HeLa [1] came to 39.8 µM; in the experiment with MDA-MB-231, 56.2 µM; in the experiment with A498 [2] it was 11.9 µM.
For `COc1cc2c(c(OC)c1OC)-c1ccc(OC)c(=O)cc1[C@@H](NC(C)=O)CC2` [COLCHICINE] the same measures were 32.7 µM, greater than 100 µM and 7.17 µM.
The matching figures for `COc1ccc(CN(C(=O)CCC(=O)Nc2ccc(Cl)cc2)c2cc(OC)c(OC)c(OC)c2)cc1`: 13.8 µM, 22.5 µM and 11.5 µM.
